Results on one molecule are retold here after ChEMBL document CHEMBL5728584, “Bicyclic amide compounds and methods of use thereof” (2021).

This assay concerns the target T1, Receptor-interacting serine/threonine-protein kinase 1 (Homo sapiens, UniProt Q13546).
T1 sequence (Q13546 whole entry): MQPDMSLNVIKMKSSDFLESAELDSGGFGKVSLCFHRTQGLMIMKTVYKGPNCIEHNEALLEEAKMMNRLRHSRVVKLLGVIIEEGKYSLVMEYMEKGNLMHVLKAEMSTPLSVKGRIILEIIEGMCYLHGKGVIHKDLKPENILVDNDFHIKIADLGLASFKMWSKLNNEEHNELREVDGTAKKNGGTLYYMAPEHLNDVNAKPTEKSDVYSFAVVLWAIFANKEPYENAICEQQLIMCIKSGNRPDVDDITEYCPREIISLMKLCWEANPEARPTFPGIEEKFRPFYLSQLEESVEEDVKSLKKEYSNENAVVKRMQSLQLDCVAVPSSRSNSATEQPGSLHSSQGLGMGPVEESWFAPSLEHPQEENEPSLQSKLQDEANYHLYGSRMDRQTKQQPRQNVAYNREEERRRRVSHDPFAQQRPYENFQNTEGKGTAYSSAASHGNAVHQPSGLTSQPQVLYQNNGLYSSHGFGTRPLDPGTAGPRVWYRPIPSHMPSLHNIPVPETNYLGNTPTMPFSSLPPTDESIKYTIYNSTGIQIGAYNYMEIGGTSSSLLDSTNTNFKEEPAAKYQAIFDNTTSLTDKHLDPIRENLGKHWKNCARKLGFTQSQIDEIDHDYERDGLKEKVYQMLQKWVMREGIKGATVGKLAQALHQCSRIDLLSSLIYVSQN
Description: Biochemical Assay: The ability of the receptor interacting protein kinase (RIPK1) to catalyze the hydrolysis of adenosine-5′-triphosphate (ATP) is monitored using the Transcreener ADP (adenosine-5′-diphosphate) assay (BellBrook Labs). Purified human RIP1 kinase domain (2-375) (50 nM) derived from a baculovirus-infected insect cell expression system is incubated with test compounds for 2 hours in 50 mM Hepes buffer (pH 7.5) containing 30 mM MgCl2, 1 mM dithiothreitol, 50 uM ATP, 0.002% Brij-35, and 0.5% dimethyl sulfoxide (DMSO). Reactions are quenched by the addition of 1× Bell Brooks Stop buffer B (20 mM Hepes (ph7.5), 40 mM ethylenediaminetetraacetic acid and 0.02% Brij-35) containing an additional 12 mM EDTA and 55 ug/mL ADP2 antibody and 4 nM ADP-AlexaFluor® 633 tracer. The tracer bound to the antibody is displaced by the ADP generated during the RIP1K reaction, which causes a decrease in fluorescence polarization that is measured by laser excitation at 633 nm with a FP microplate reader M1000.

As a reminder, the Ki is the dissociation constant of the complex between target and ligand, obtained from inhibition or displacement. A high value points to a looser hold on the target. As for `O=C(c1nc2n(n1)CCOC2c1ccccc1)N1CC(F)C1` (racemic), the inhibition constant Ki is 2.1 µM.
